This is an account of results in ChEMBL document CHEMBL6103537 (J Med Chem, 2025).

Test [1] addresses T1, Signal transducer and activator of transcription 6 (Homo sapiens, UniProt P42226).
T1 sequence (P42226 whole entry): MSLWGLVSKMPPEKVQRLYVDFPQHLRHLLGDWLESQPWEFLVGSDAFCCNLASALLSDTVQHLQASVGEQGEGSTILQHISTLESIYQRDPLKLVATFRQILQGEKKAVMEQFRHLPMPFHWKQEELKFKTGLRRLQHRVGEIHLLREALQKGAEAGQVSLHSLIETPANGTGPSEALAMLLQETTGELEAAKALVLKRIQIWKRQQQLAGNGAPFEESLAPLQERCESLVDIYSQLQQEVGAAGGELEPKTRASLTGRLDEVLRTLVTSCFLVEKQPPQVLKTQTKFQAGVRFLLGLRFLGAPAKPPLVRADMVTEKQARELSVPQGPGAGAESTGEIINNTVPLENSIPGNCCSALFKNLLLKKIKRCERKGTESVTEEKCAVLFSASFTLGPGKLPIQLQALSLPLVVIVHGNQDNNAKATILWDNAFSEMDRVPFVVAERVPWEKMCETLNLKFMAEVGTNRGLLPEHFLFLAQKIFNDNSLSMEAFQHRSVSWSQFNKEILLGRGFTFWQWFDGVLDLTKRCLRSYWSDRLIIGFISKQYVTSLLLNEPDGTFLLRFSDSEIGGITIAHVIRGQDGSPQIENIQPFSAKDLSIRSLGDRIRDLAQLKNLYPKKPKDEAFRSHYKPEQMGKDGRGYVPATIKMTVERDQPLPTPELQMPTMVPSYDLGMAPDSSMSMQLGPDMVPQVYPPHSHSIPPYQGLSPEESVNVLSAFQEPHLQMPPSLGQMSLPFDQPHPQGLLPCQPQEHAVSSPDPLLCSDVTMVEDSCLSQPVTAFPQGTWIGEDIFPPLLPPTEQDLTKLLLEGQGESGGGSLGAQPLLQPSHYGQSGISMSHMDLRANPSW
In words: Binding affinity to N-terminal his6-tgged STAT6 (unknown origin) (113 to 658 residues) assessed as inhibition constant incubated for 1 hr by fluorescence polarization assay. (In general: Fluorescence polarisation rises when a labelled molecule tumbles more slowly, as on binding a larger partner.)

Test [2] deals with T2, Protein cereblon/Signal transducer and activator of transcription 6 (Homo sapiens, UniProt P42226+Q96SW2). Nature of the test: PROTAC activity at STAT6/CRBN in human MV4-11 cells assessed as reduction in STAT6 level incubated for 12 hrs by Western blot analysis. Type of test: cell-based.
Target sequence in this assay (Q96SW2 whole entry, one chain of several): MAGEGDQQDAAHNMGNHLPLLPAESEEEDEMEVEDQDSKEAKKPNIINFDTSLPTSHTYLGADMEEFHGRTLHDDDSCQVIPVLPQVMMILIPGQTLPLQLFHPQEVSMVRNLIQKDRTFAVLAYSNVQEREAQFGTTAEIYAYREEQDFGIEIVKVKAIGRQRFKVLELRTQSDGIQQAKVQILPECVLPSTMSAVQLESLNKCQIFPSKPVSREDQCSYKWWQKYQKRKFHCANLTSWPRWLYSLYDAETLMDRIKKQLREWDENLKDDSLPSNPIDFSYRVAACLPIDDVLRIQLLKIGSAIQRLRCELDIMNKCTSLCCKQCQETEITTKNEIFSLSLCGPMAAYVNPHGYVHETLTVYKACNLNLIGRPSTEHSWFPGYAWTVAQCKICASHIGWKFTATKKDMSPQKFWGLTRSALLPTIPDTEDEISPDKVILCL
For test [3], the target named is T2, Protein cereblon/Signal transducer and activator of transcription 6. In words: PROTAC activity at STAT6/CRBN in human MV4-11 cells assessed as reduction in STAT6 level at 5 uM incubated for 12 hrs by Western blot analysis relative to control. Type of test: cell-based.
Target sequence in this assay (Q96SW2 whole entry partner, one chain of several): as the sequence (Q96SW2 whole entry, one chain of several) above
The target in test [4] is T3, Signal transducer and activator of transcription 5B (Homo sapiens, UniProt P51692).
T3 sequence (P51692 whole entry): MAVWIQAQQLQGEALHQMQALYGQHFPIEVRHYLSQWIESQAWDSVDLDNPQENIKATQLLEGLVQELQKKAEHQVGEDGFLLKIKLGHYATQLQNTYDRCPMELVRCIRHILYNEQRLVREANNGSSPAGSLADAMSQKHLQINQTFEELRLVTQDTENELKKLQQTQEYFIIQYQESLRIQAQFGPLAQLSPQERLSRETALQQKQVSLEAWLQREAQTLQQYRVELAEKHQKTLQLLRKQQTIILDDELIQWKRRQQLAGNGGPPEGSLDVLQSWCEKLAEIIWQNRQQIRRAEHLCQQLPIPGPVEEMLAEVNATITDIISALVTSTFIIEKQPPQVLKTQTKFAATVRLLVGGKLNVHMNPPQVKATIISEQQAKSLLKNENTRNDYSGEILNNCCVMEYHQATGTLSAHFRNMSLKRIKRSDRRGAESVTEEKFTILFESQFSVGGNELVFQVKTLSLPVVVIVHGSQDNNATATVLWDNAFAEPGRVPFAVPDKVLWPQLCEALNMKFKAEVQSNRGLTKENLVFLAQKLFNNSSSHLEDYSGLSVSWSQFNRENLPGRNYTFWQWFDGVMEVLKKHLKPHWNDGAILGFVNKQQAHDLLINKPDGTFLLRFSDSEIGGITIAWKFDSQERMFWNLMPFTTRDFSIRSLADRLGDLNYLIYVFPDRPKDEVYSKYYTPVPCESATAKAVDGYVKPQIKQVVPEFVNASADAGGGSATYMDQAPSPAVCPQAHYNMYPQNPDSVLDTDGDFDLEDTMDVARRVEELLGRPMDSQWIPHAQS
In words: Binding affinity to STAT5B (unknown origin) assessed as inhibition constant incubated for 1 hr by fluorescence polarization assay.

The term Ki denotes the dissociation constant of the complex between target and ligand, obtained from inhibition or displacement. As to `COc1ccc(C[C@H](NC(=O)c2cc3cc(C(F)(F)P(=O)(O)O)ccc3s2)C(=O)N2CCC[C@H]2C(=O)N2CCO[C@H](c3ccccc3)C2)cc1`, the Ki in test [1] is 210 nM.

Take `CC(C)(C)[C@H](NC(=O)c1cc2cc(C(F)(F)P(=O)(O)O)ccc2s1)C(=O)N1CCCC[C@H]1C(=O)N1CCC[C@H](c2ccccc2)C1`: in test [1], the Ki came out at 160 nM.

On to `CC(C)(C)[C@H](NC(=O)c1cc2cc(C(F)(F)P(=O)(O)O)ccc2s1)C(=O)N1Cc2ccccc2[C@H]1C(=O)N1CCC[C@H](c2ccccc2)C1`, for which, in test [1], the Ki was 42 nM.

With `CC(C)(C)[C@H](NC(=O)c1cc2cc(C(F)(F)P(=O)(O)O)ccc2s1)C(=O)N1CCCCC[C@H]1C(=O)N1CCC[C@H](c2ccccc2)C1`, the Ki in test [1] was found to be 200 nM.

As for `O=C(N[C@H](C(=O)N1CCC[C@H]1C(=O)N1CCO[C@H](c2ccccc2)C1)C1CCNCC1)c1cc2cc(C(F)(F)P(=O)(O)O)ccc2s1`, the Ki in test [1] worked out at 260 nM.

Consider `O=C(N[C@@H](Cc1ccccc1)C(=O)N1CCC[C@H]1C(=O)N1CCO[C@H](c2ccccc2)C1)c1cc2cc(C(F)(F)P(=O)(O)O)ccc2s1`, for which the inhibition constant Ki in test [1] amounted to 340 nM.

As usually defined, the Emax is the maximal effect, on the per cent scale that the assay sets. As for `CC(C)(C)[C@H](NC(=O)c1cc2cc(C(F)(F)P(=O)(O)O)ccc2s1)C(=O)N1C[C@@H](OCCCCCCCC#Cc2cccc3c2CN(C2CCC(=O)NC2=O)C3=O)C[C@H]1C(=O)N1CCO[C@H](c2ccccc2)C1` (stereo partly drawn), the DC50 in test [2] is 60 nM. Further, in test [3], the Emax was greater than 95%.

As for `O=C(N[C@@H](Cc1ccc(Br)cc1)C(=O)N1CCC[C@H]1C(=O)N1CCO[C@H](c2ccccc2)C1)c1cc2cc(C(F)(F)P(=O)(O)O)ccc2s1`, the Ki in test [1] worked out at 170 nM.

For the compound `CC(C)(C)[C@H](NC(=O)c1cc2cc(C(F)(F)P(=O)(O)O)ccc2s1)C(=O)N1C[C@@H](OCCCCCCC#Cc2cccc3c2CN(C2CCC(=O)NC2=O)C3=O)C[C@H]1C(=O)N1CCO[C@H](c2ccccc2)C1` (stereo partly drawn), in test [2], the DC50 was found to be 20 nM. Also, in test [3], the maximal effect (Emax) is greater than 95%.

With `CC(C)(C)[C@H](NC(=O)c1cc2cc(C(F)(F)P(=O)(O)O)ccc2s1)C(=O)N1Cc2ccccc2C[C@H]1C(=O)N1CCC[C@H](c2ccccc2)C1`, in test [1], the inhibition constant (Ki) was determined as 190 nM.

For `CC(C)(C)[C@H](NC(=O)c1cc2cc(C(F)(F)P(=O)(O)O)ccc2s1)C(=O)N1C[C@H](OCCCCCC#Cc2cccc3c2CN(C2CCC(=O)NC2=O)C3=O)C[C@H]1C(=O)N1CCO[C@H](c2ccccc2)C1` (stereo partly drawn), the DC50 in test [2] amounted to 130 nM. The maximal effect (Emax) in test [3] was greater than 95%.

`CO[C@H]1C[C@@H](C(=O)N2CCO[C@H](c3ccccc3)C2)N(C(=O)[C@@H](NC(=O)c2cc3cc(C(F)(F)P(=O)(O)O)ccc3s2)C(C)(C)C)C1`: in test [1], the Ki worked out at 6 nM.

`CC[C@H](NC(=O)c1cc2cc(C(F)(F)P(=O)(O)O)ccc2s1)C(=O)N1CCC[C@H]1C(=O)N1CCO[C@H](c2ccccc2)C1`: the Ki in test [1] came out at 160 nM.

On to `CC(C)(C)c1ccc(C[C@H](NC(=O)c2cc3cc(C(F)(F)P(=O)(O)O)ccc3s2)C(=O)N2CCC[C@H]2C(=O)N2CCO[C@H](c3ccccc3)C2)cc1`, for which the Ki in test [1] is 160 nM.

Turning to `O=C(N[C@H](C(=O)N1CCC[C@H]1C(=O)N1CCO[C@H](c2ccccc2)C1)C1CC1)c1cc2cc(C(F)(F)P(=O)(O)O)ccc2s1`, the inhibition constant (Ki) in test [1] worked out at 120 nM.

With `CC(C)(O)[C@H](NC(=O)c1cc2cc(C(F)(F)P(=O)(O)O)ccc2s1)C(=O)N1CCC[C@H]1C(=O)N1CCO[C@H](c2ccccc2)C1`, in test [1], the inhibition constant Ki worked out at 120 nM.

Take `CC(C)(C)[C@H](NC(=O)c1cc2cc(C(F)(F)P(=O)(O)O)ccc2s1)C(=O)N1C[C@@H](NC(=O)CCCCCC#Cc2cccc3c2CN(C2CCC(=O)NC2=O)C3=O)C[C@H]1C(=O)N1CCO[C@H](c2ccccc2)C1` (stereo partly drawn): the DC50 in test [2] was found to be 60 nM. For the same compound, the Emax in test [3] is greater than 95%.

In the case of `CC(=O)N[C@H]1C[C@@H](C(=O)N2CCO[C@H](c3ccccc3)C2)N(C(=O)[C@@H](NC(=O)c2cc3cc(C(F)(F)P(=O)(O)O)ccc3s2)C(C)(C)C)C1`, the Ki in test [4] is 590 nM.

On to `CC(C)(C)[C@H](NC(=O)c1cc2cc(C(F)(F)P(=O)(O)O)ccc2s1)C(=O)N1CCC[C@H]1C(=O)N1Cc2ccccc2C1`, for which the Ki in test [4] was greater than 5000 nM.

Regarding `O=C(N[C@H](C(=O)N1CCC[C@H]1C(=O)N1CCO[C@H](c2ccccc2)C1)C1CCCCC1)c1cc2cc(C(F)(F)P(=O)(O)O)ccc2s1`, in test [1], the Ki was 90 nM.

As for `CC(C)(C)[C@H](NC(=O)c1cc2cc(C(F)(F)P(=O)(O)O)ccc2s1)C(=O)N1C[C@@H](NC(=O)CCCCCCC#Cc2cccc3c2CN(C2CCC(=O)NC2=O)C3=O)C[C@H]1C(=O)N1CCO[C@H](c2ccccc2)C1` (stereo partly drawn), the DC50 in test [2] worked out at 250 nM. Moreover, the maximal effect (Emax) in test [3] was greater than 95%.

For `CC(C)(C)[C@H](NC(=O)c1cc2cc(C(F)(F)P(=O)(O)O)ccc2s1)C(=O)N1C[C@@H](OCCCCC#Cc2cccc3c2CN(C2CCC(=O)NC2=O)C3=O)C[C@H]1C(=O)N1CCO[C@H](c2ccccc2)C1` (stereo partly drawn), the DC50 in test [2] worked out at 50 nM. For the same compound, the maximal response (Emax) in test [3] is greater than 95%.

For `CC(C)(C)[C@H](NC(=O)c1cc2cc(C(F)(F)P(=O)(O)O)ccc2s1)C(=O)N1C[C@@H](NC(=O)CCCCCC#Cc2ccc3c(c2)CN(C2CCC(=O)NC2=O)C3=O)C[C@H]1C(=O)N1CCO[C@H](c2ccccc2)C1` (stereo partly drawn), in test [2], the DC50 came out at 200 nM. Besides, the Emax in test [3] was greater than 90%.

Regarding `CC(C)(C)[C@H](NC(=O)c1cc2cc(C(F)(F)P(=O)(O)O)ccc2s1)C(=O)N1C[C@@H](OCCCCCCNc2cccc3c2CN(C2CCC(=O)NC2=O)C3=O)C[C@H]1C(=O)N1CCO[C@H](c2ccccc2)C1` (stereo partly drawn), the DC50 in test [2] came to 60 nM. In addition, the maximal response (Emax) in test [3] was greater than 95%.

Turning to `CC(C)(C)[C@H](NC(=O)c1cc2cc(C(F)(F)P(=O)(O)O)ccc2s1)C(=O)N1Cc2ccccc2[C@H]1C(=O)N1CCO[C@H](c2ccccc2)C1`, in test [1], the Ki worked out at 33 nM.

On to `C/C(=C\C(=O)N[C@H](C(=O)N1CCC[C@H]1C(=O)N1CCc2ccccc2C1)C(C)(C)C)c1ccc(C(F)(F)P(=O)(O)O)cc1`, for which the inhibition constant (Ki) in test [1] worked out at 3500 nM.

Turning to `CC(C)(C)[C@H](NC(=O)c1cc2cc(C(F)(F)P(=O)(O)O)ccc2s1)C(=O)N1C[C@@H](NC(=O)CCCCC#Cc2cccc3c2CN(C2CCC(=O)NC2=O)C3=O)C[C@H]1C(=O)N1CCO[C@H](c2ccccc2)C1` (stereo partly drawn), the DC50 in test [2] was 120 nM. Further, in test [3], the maximum response (Emax) was greater than 95%.

With `CC(C)(C)[C@H](NC(=O)c1cc2cc(C(F)(F)P(=O)(O)O)ccc2s1)C(=O)N1CCCC[C@H]1C(=O)N1CCO[C@H](c2ccccc2)C1`, the Ki in test [1] turned out to be 110 nM.

Consider `O=C(N[C@@H](CC1CCNCC1)C(=O)N1CCC[C@H]1C(=O)N1CCO[C@H](c2ccccc2)C1)c1cc2cc(C(F)(F)P(=O)(O)O)ccc2s1`, for which the Ki in test [1] worked out at 180 nM.

With `O=C(N[C@@H](Cc1ccncc1)C(=O)N1CCC[C@H]1C(=O)N1CCO[C@H](c2ccccc2)C1)c1cc2cc(C(F)(F)P(=O)(O)O)ccc2s1`, the Ki in test [1] turned out to be 450 nM.

Regarding `CC(C)(C)[C@H](NC(=O)c1cc2cc(C(F)(F)P(=O)(O)O)ccc2s1)C(=O)N1Cc2ccccc2C[C@H]1C(=O)N1CCO[C@H](c2ccccc2)C1`, in test [1], the Ki was 83 nM.

As for `O=C(N[C@@H](Cc1ccc2ccccc2c1)C(=O)N1CCC[C@H]1C(=O)N1CCO[C@H](c2ccccc2)C1)c1cc2cc(C(F)(F)P(=O)(O)O)ccc2s1`, the Ki in test [1] came to 250 nM.

On to `CN1CCC(C[C@H](NC(=O)c2cc3cc(C(F)(F)P(=O)(O)O)ccc3s2)C(=O)N2CCC[C@H]2C(=O)N2CCO[C@H](c3ccccc3)C2)CC1`, for which, in test [1], the inhibition constant (Ki) was determined as 250 nM.

For the compound `CC(C)(C)[C@H](NC(=O)c1cc2cc(C(F)(F)P(=O)(O)O)ccc2s1)C(=O)N1CCCCC[C@H]1C(=O)N1CCO[C@H](c2ccccc2)C1`, the inhibition constant (Ki) in test [1] amounted to 120 nM.
